Test results: patent US9220680B2, “Compositions and methods for localized drug delivery through mammary papillae” (South Dakota State University, priority 2012, dated 2015)

Key:
[1] = Transmammary permeation across human mammary papilla with and without removal of the keratin plug (Experiments 12-18); format: in vitro ADME; details: for lag time / cumulative amount permeated / Drug retention in tissue / Flux: value (SEM); for cumulative amount permeated: 48 hours; for Drug retention in tissue: end of 48 hours
Excerpt: Mammary papillae tissues were thawed. […] The drug solutions were spiked with radioactive substances. […] Receptor medium was PBS with 7.4 pH. […] Results may be seen in FIG. 37 and Table 13.
Mammary papillae tissues were thawed. […] The drug solutions were spiked with radioactive substances. […] Receptor medium was PBS with 7.4 pH. […] Results may be seen in FIG. 38 and Table 15.
Mammary papillae tissues were thawed. […] The drug solutions were spiked with radioactive substances. […] Receptor medium was PBS with 7.4 pH. […] Results may be seen in FIG. 39 and Table 17.
Mammary papillae tissues were thawed. […] The drug solutions were spiked with radioactive substances. […] Receptor medium was PBS with 7.4 pH. […] Results may be seen in FIG. 40.
Mammary papillae and skin tissues were thawed. […] The drug solutions were spiked with radioactive substances. […] Receptor medium was PBS with 7.4 pH. […] Results may be seen in FIG. 41 and Table 20.
Mammary papillae and skin tissues were thawed. […] The drug solutions were spiked with radioactive substances. […] Receptor medium was PBS with 7.4 pH. […] Results may be seen in FIG. 42 and Table 22.
Mammary papillae tissues were thawed. […] The drug solutions were spiked with radioactive substances. […] Receptor medium was PBS with 7.4 pH. […] Results may be seen in FIG. 43 and Table 24.

[2] = cited from earlier work
[3] = Biodistribution of 5FU in rats 30 minutes after intraductal and intravenous injection (Experiment 24); format: in vivo, Sprague-Dawley rats; details: rat; for Drug per gram tissue of mammary papilla: 30 min, n=1
Experimental: The hair on the skin of the rats was removed using a hair removing formulation. The treatment was given after 24 hours to make sure the skin is recovered if damaged or altered due to the hair removal treatment.
Next day, the rats were placed under controlled Isoflurane anesthesia. Now 500 μl of Blood samples were collected from each animal before beginning the experiment, by retro-orbital technique, as a control. For intraductal injection the mammary papilla to be treated was gently wiped with an alcoholic cotton swab to remove the keratin plug. Now 50 μl of 5FU solution in saline (10 mg/ml) was injected into the duct of the mammary papilla under a stereo-microscope. After this the animal was removed from anesthesia and placed into the cage. In case of intravenous injection, similar to intraductal, 50 μl of 5FU solution in saline (10 mg/ml) was injected into the tail vein and the animal was placed into the cage for 30 minutes. At the end of 30 minutes 500 μl of blood sample was collected. After this the rats were euthanized. Now for intraductal injection the treated area of the rat was cleaned with water. The rat was opened from the abdominal skin. Treated mammary papilla and mammary gland existing underneath the treated mammary papilla was excised and collected. Lateral mammary papilla and mammary gland was collected along with distant mammary papilla and mammary gland, as controls. Followed by this other organs including heart, brain, liver, spleen, kidneys and lungs were collected. In case of intravenous treatment, blood was collected and mammary tissues (mammary papilla, mammary gland and surrounding breast skin) was collected along with other organs including heart, brain, liver, spleen, kidneys and lungs. All the tissues were weighed and then mechanically homogenized to extract the drug. The homogenates were mixed with hydrogen peroxide solution (30% v/v) and then radioactivity into the samples was measured by liquid scintillation counting. Similarly blood samples were centrifuged and the supernatants were analyzed by scintillation counting. Results may be seen in FIG. 50, Tables 30-31.

[4] = In vitro penetration and permeation via excised porcine mammary papilla, Franz diffusion cell (Example 1); format: in vitro ADME
Experimental: Drug penetration and permeation via mammary papillae was performed in a Franz diffusion cell using excised porcine mammary papilla. […] The transport studies were performed at time points for 6 and 48 hours.
In a separate study to evaluate the drug retention and disposition, the treatment was removed after 6 hours and the study was continued until the 48 hour mark. Samples were withdrawn from the receptor compartment at different time points. At the end of study, the mammary papilla was cut to 2 mm thick cylindrical sections from the top to the base of the tissue and was digested using a tissue solubilizer. The drug concentrations were determined by liquid scintillation counting.
Methods for the preparation of porcine mammary papilla. Freshly excised strips of porcine mammary papilla (6-7 months old animals) were washed with deionized water followed by removal of subcutaneous fatty tissue using a scalpel. Keeping the mammary papilla in the center, 3 cm×3 cm sized specimens of the tissue were excised, subcutaneous fat tissue was removed, and the tissue was frozen at −20° C. until used for the drug penetration and permeation studies.
Breast tissue was mounted between the two compartments of a vertical Franz diffusion cell (FDC) with breast tissue sandwiched between donor and receptor compartments. A mammary papilla was set in upright position inside the donor compartment of Franz diffusion cell. […] Samples were withdrawn from the receptor at different time points for 48 hours to determine drug concentration by radioactive count. At the end of 48 hours, tissue samples were taken for drug content determination. […]
In a second study, the mammary papillae in Franz diffusion cells were treated with the drugs for 48 hours and the permeation was followed through 48 hours. This analysis provided information regarding any saturation from drug treatment for extended periods of time. […]
Extraction of drugs from the mammary papilla. At the end of permeation study, the mammary papilla was removed from Franz diffusion cell and thoroughly washed with deionized water and blotted dried. Approximately 2 mm thick sections of the tissue were taken using a scalpel. These sections were homogenized, the drug was extracted, and the drug concentration was determined by radioactive counts.

[5] = Transmammary permeation across porcine mammary papilla with and without removal of the keratin plug (Experiments 7-10); format: in vitro ADME; details: porcine mammary papilla
Excerpt: Keratin plug was removed from human and porcine mammary papilla using an alcoholic cotton swab. The swab was gently rubbed on the surface of the mammary papilla. The mammary papilla was observed under the microscope to confirm the removal of the plug from the surface and to confirm that epidermis of the mammary papilla was not damaged during this procedure.
The drug solutions were spiked with radioactive substances. […] Receptor medium was PBS with 7.4 pH.
(§1) Mammary papillae tissues were thawed. Keratin plugs were removed from the mammary papilla tissues using swabs with ethanol. […] The drug solutions were spiked with radioactive substances. […] Receptor medium was PBS with 7.4 pH.
as §1
Mammary papillae tissues were thawed. Keratin plugs were removed from the mammary papilla tissues using swabs with ethanol. […] The drug solutions were spike with radioactive substances. […] Receptor medium was PBS with 7.4 pH.

[6] = 5FU 20 mg/ml, human mammary papilla with keratin plug removal
[7] = 5FU 20 mg/ml, human mammary papilla without keratin plug removal
[8] = excised porcine mammary papilla, saturated solution in ethanol:water (50:50), 48 h, mean ± SEM, n=3
[9] = porcine mammary papilla, end of 48 h, mean ± SEM, n=3

In the case of `O=c1[nH]cc(F)c(=O)[nH]1` [5FU, 5-fluorouracil], the lag time ([1]; 5FU 20 mg/ml in 50:50 ethanol:water, human mammary papilla with keratin plug removal, n=3-4) is reported as 8.76 (1.46) hours, the cumulative amount permeated [1, 6] is reported as 5.06 (1.17) μmole and the “Drug retention in tissue” value [1, 6] is reported as 7.30 (2.81) umole/g of tissue. The Flux [1, 6] was 0.18 (0.05) μmole/cm^2/hour, the cumulative amount permeated [1, 7] was 0.71 (0.08) μmole and the “Drug retention in tissue” value [1, 7] was 2.28 (0.04) umole/g of tissue. The Flux [1, 7] was 0.03 (0.00) μmole/cm^2/hour, the lag time [1, 7] was 17.96 (3.80) hours and the “Permeation profile via human vs porcine mammary papillae” value ([1]; after keratin plug removal, 48 hours (Experiment 15)) was “similar”. The “Increase in permeation across the tissues upon removal of the keratin plugs” value ([1]; human mammary papilla) was “more than 7 fold”, the “Log P” value [2] was −0.89 and the “Drug per gram tissue, mammary gland” value ([3]; ID (30 min)) was 0.018 µmol/g. For the same compound, the “Drug per gram tissue, surrounding skin” value ([3]; ID (30 min)) was 0.03 µmol/g, the “Drug per gram tissue, mammary gland” value ([3]; IV (30 min)) was 0.009 µmol/g and the “Drug per gram tissue, surrounding skin” value ([3]; IV (30 min)) was 0 µmol/g. For the same compound, the “5FU in vital organs of the body” value ([3]; intraductal and intravenous injection, 30 minutes) was “significant amount of 5FU in vital organs of the body including kidneys, liver and brain”, the “Drug per gram tissue of mammary papilla” value ([3]; intraductal injection 50 μl of 10 mg/ml 5FU in saline) was 0.16 µmol/g and the “Drug per gram tissue of mammary papilla” value ([3]; intravenous injection 50 μl of 10 mg/ml 5FU in saline) was 0 µmol/g. For the same compound, the Lag time ([4]; excised porcine mammary papilla, Franz diffusion cell, saturated solution in ethanol:water (50:50), 48 h, mean ± SEM, n=3) was 8.18 ± 0.79 h, the Cumulative % permeated [4, 8] was 5.71 ± 0.06% and the “Flux × 10^3” value [4, 8] was 38.46 ± 2.38 μM · cm^2 · hr^−1. The “Permeability coefficient × 10^3” value [4, 8] was 0.25 ± 0.015 cm^2 · hr^−1, the cumulative amount permeated [4, 8] was 4.38 ± 0.04 µM and the Cumulative % retained [4, 9] was 4.94 ± 0.74%. The Cumulative amount retained [4, 9] was 3.80 ± 0.56 µM, the “Drug extraction from 2 mm thick mammary papilla sections, Section A (tip)” value [4, 9] was 13.47 ± 1.35 µM/g and the “Drug extraction from 2 mm thick mammary papilla sections, Section B” value [4, 9] was 11.78 ± 1.69 µM/g. The “Drug extraction from 2 mm thick mammary papilla sections, Section C” value [4, 9] was 9.80 ± 1.44 µM/g, the “Drug extraction from 2 mm thick mammary papilla sections, Section D (base)” value [4, 9] was 5.84 ± 1.69 µM/g and the “Permeation across mammary papilla (in words)” value ([4]; porcine mammary papilla, treatment up to 48 hours) was “significant amount of 5FU passes through the mammary papilla”. For the same compound, the Transmammary flux [5] was 10.79 μg/sq·cm/h and the “Change of permeation upon removal of the keratin plugs (in words)” value ([5]; donor in 50:50 ethanol:water, 48 hours) was “increases slightly, though statistically not significant”.
